{"source": "paper PMC10635799", "about": "“Analogs of FTY720 inhibit TRPM7 but not S1PRs and exert multimodal anti-inflammatory effects” (The Journal of General Physiology, 2023)", "key": {"S1P receptors": {"system": "S1P receptors", "conditions": "cited from earlier work; for Effect on S1PRs: non-phosphorylated form, ref Qin et al., 2013"}, "TRPM7": {"system": "TRPM7", "conditions": "cited from earlier work; for IC50: read-out: IC50 for TRPM7 inhibition"}, "mouse TRPM7": {"target": "T1, mouse TRPM7 (Mus musculus, UniProt Q923J1)", "T1 construct": "expressed in transfected cells; host or cells: HEK 293T cells (CRL-3216; ATCC), transient transfection with jetOPTIMUS, co-transfected eGFP as a separate plasmid", "T1 sequence (Q923J1 whole entry)": "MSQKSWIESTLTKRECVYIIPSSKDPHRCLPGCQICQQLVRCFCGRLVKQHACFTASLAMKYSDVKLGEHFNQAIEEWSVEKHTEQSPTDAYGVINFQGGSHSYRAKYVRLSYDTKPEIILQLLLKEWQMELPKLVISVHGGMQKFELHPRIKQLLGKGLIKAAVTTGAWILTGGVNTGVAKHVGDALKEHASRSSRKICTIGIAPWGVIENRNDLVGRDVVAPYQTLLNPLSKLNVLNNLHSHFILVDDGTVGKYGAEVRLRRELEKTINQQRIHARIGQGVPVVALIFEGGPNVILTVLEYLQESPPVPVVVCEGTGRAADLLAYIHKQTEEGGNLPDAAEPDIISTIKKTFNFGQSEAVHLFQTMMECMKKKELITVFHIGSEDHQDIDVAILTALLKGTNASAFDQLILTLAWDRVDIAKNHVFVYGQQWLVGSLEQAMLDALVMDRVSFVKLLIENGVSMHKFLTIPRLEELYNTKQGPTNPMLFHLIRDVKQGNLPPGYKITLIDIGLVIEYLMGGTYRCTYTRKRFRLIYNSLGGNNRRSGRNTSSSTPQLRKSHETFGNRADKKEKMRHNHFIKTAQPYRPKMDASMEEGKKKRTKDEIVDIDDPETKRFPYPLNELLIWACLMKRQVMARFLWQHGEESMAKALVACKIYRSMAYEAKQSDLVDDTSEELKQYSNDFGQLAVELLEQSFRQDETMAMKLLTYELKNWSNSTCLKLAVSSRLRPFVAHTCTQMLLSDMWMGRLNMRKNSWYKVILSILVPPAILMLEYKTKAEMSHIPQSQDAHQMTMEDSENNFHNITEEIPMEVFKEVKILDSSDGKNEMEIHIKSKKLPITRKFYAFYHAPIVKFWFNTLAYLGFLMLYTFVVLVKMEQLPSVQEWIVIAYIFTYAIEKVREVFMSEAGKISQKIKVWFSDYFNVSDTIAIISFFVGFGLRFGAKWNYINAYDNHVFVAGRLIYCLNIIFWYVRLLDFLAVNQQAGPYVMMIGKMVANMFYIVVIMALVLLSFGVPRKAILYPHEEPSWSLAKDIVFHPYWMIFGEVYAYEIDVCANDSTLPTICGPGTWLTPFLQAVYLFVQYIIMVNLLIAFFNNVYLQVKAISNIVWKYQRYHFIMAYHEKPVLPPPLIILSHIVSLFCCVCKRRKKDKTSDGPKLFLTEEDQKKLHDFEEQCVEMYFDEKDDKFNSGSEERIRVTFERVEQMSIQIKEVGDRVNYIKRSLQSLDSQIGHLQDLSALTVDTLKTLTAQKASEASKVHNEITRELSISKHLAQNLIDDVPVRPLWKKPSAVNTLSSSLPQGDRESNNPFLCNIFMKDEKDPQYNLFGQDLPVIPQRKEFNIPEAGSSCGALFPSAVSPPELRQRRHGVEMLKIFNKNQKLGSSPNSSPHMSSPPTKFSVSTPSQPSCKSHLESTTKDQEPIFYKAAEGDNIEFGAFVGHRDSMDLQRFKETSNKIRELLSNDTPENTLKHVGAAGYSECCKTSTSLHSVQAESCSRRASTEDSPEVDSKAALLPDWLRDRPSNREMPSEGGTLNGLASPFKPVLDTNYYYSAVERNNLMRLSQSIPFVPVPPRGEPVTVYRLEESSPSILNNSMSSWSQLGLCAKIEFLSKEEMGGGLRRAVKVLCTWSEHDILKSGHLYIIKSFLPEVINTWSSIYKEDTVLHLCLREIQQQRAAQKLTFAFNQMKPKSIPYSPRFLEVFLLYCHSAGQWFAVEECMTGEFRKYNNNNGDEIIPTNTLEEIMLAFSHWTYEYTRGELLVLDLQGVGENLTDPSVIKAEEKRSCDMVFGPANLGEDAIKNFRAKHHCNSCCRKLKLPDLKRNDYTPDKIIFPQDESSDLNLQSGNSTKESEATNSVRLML", "experiment": "Whole-cell patch clamp of TRPM7 current (IM7) in HEK 293T cells overexpressing mouse TRPM7", "format": "cell-based", "method": "To overexpress TRPM7, HEK 293T cells were plated at a density of 500,000 cells per well (day 0), transfected at 80–90% confluency (day 1), and were patched 24–36 h after transfection (day 2). TRPM7 overexpression was performed using WT mouse TRPM7 (2.5 µg plasmid DNA; [Desai et al., 2012]) and jetOPTIMUS DNA Transfection Reagent (101000006; Polyplus). To enhance the selection rate of TRPM7-overexpressing cells, eGFP (#22152; Addgene) was included at a 1:10 dilution (0.25 µg) and only GFP-positive cells were patched.\nWhole-cell patch clamp electrophysiology was performed as described previously ([Schappe et al., 2022]). Briefly, the external solution contained (in mM) 140 Na-methanesulfonate, 5 Cs-gluconate, 2.5 CaCl2, and 10 HEPES, pH 7.4 (adjusted with NaOH), at an osmolality of 280–290 mOsm/kg. The internal pipette solution contained (in mM) 115 Cs-gluconate, 3 NaCl, 0.75 CaCl2, 10 HEPES, 10 HEDTA, 1.8 Cs4-BAPTA, and 2 Na2ATP, pH 7.3 (adjusted with CsOH), at an osmolality of 273 mOsm/kg. Intracellular free [Ca^2+] was estimated to be ∼100 nM using the online WEBMAXC standard calculator at https://somapp.ucdmc.ucdavis.edu/pharmacology/bers/maxchelator/webmaxc/webmaxcS.htm ([Bers et al., 2010]). Recordings were captured in pCLAMP 9 (Molecular Devices) using a 400-ms ramp protocol from −100 to +100 mV and a holding potential of 0 mV. Sampling was performed at 10 kHz with a 5 kHz low-pass band filter using an Axopatch 200B amplifier (Molecular Devices). All electrophysiology experiments were conducted at RT (∼23°C). […] Similarly, the minimum current for each inhibitor dose is taken as the stable minimum current observed after the drug has had time to exert an effect and after the flow-driven transient increase has subsided.\nData were analyzed using Microsoft Excel, Prism 9.5 (GraphPad Software), and Origin Pro 7.5 (OriginLab). Chemical structures were created using ChemDraw Professional 20.1.1 (PerkinElmer). Electrophysiology traces were plotted using Origin Pro 7.5, and the remaining data were plotted and statistically tested using Prism. Outliers were determined using the robust regression and outlier removal (ROUT) function within Prism. IC50 values were determined by plotting the percentage of maximum current observed as a function of applied drug concentration. A non-linear regression was fit using a standard Hill slope of −1.0 and the model: Y=100/[1+([Inhibitor]/IC50)]. Where appropriate, data are presented as individual values; otherwise the sample sizes and precision measures are indicated in the figure legends. P values of <0.05 were considered statistically significant."}, "[1]": {"system": "small-conductance Ca^2+-activated K^+ (SK) channels", "set-up": "method as in Diness et al., 2010", "conditions": "ref Diness et al., 2010; read-out: IC50 on SK-family channels; cited from earlier work"}, "BMDMs": {"system": "BMDMs", "experiment": "LPS-induced inflammation assay in WT and TRPM7 KO BMDMs (qRT-PCR)", "format": "cell-based, mice", "conditions": "10 µM VPC4, 10 µM AAL-149, 5 µM FTY720, 30 μM NS8593", "method": "All cells were cultured at 37°C with 5% CO2. HEK 293T cells (CRL-3216; ATCC), HeLa cells (CCL-2; ATCC), RAW 264.7 macrophages (TIB-71; ATCC), and BV-2 microglial cells (ABC-TC212S; AcceGen Biotech) were cultured in DMEM (11995065; Gibco) with 10% fetal bovine serum (FBS; Avantor Seradigm Premium Grade Fetal Bovine Serum 97068-085). FBS was heat-inactivated prior to use at 56°C for 30 min. BMDMs were isolated and cultured as previously described ([Schappe et al., 2018]) and differentiated into mature macrophages over 7 d through culture in BMDM media (RPMI 1640, 10% FBS, and 20% L-929 culture supernatant; Gibco).\n(§1) RAW 264.7 macrophages or BMDMs were seeded at a density of 250,000 cells per well into a 12-well tissue culture plate in 1 ml of media and left to incubate overnight. The indicated drug or vehicle control was added to each well, and the plate was agitated and left to incubate for 10 min. The cells were then treated with LPS (1 µg/ml) or an equivalent volume of PBS, agitated, and left to incubate for 3 h. Cells were washed with PBS and then RNA isolation was performed using RNeasy Plus Micro Kit (74134; Qiagen). cDNA was produced using GoScript Reverse Transcriptase (A5004; Promega) and a quantitative PCR was performed using SensiFast SYBR (98020; Bioline) and Bio-Rad CFX Connect thermocycler. Each datum represents an individual, biological replicate that is the mean of duplicate technical replicates. Fold-changes are all reported relative to untreated controls for each experiment and were calculated using the ∆∆Ct method, with β2-microglobulin used as the housekeeping gene for each sample. The experiment was performed similarly with BV-2 microglia and alveolar macrophages, except that cells were plated at a density of 100,000 cells per well into a 24-well tissue culture plate with 1 ml of media per well."}, "RAW 264.7 macrophages": {"system": "RAW 264.7 macrophages", "experiment": "LPS-induced inflammatory gene expression (qRT-PCR) in RAW 264.7 macrophages", "format": "cell-based", "conditions": "LPS 1 µg/ml for 3 h", "method": "as §1, with “μg/ml)” for “µg/ml)”, “([…];” for “(A5004;”, “ΔΔCt” for “∆∆Ct”"}, "lymphocytes": {"system": "lymphocytes", "set-up": "method as in Brinkmann et al., 2002; Zhu et al., 2007", "conditions": "ref Brinkmann et al., 2002; Zhu et al., 2007; cited from earlier work"}, "HeLa cells": {"system": "HeLa cells", "experiment": "LDH-release cytotoxicity assay", "format": "cell-based", "conditions": "24 h", "method": "WT HeLa cells were plated at a density of 10,000 cells per well into a 96-well tissue culture microplate (3610; Costar). AAL-149, VPC01091.4, or vehicle at 0.1, 1, 5, 10, and 25 μM was added to cells with media for a final volume of 100 μl and incubated for 24 h. LDH release was quantified using a CyQUANT LDH Cytotoxicity Assay (C20300; Thermo Fisher Scientific) and a FlexStation 3 plate reader using SoftMax […] (Molecular Devices)."}, "[2]": {"conditions": "non-phosphorylated form, ref Qin et al., 2013"}}, "note": "Entries after “also recorded” stand apart in the source; their conditions may differ. Read-outs that look alike come from different tables or passages of the source.", "data": [{"smiles": "CCCCCCCCCCCCC/C=C/[C@@H](O)[C@@H](N)CO", "note": "[sphingosine, D-erythro-sphingosine, reference compound]", "values": [{"measurement": "Effect on S1PRs", "setting": "S1P receptors", "result": "no effect"}, {"measurement": "IC50", "setting": "TRPM7; [2]", "result": 590, "unit": "nM"}]}, {"smiles": "CCCCCCCCc1ccc([C@@H]2CC[C@](N)(CO)C2)cc1", "note": "[VPC01091.3, ((1R,3R)-1-amino-3-(4-octylphenyl)cyclopentyl)methanol]", "values": [{"measurement": "Effect on whole-cell TRPM7 current (IM7)", "setting": "mouse TRPM7; 10 µM", "result": "inhibited"}]}, {"smiles": "c1ccc2c(c1)CCC[C@H]2Nc1nc2ccccc2[nH]1", "note": "[NS8593, (R)-N-(benzimidazol-2-yl)-1,2,3,4-tetrahydro-1-naphtylamine]", "values": [{"measurement": "IC50", "setting": "[1]", "result": "420 to 730", "unit": "nM"}, {"measurement": "LPS-induced IL-1β expression in TRPM7 KO BMDMs", "setting": "BMDMs", "result": "able to suppress"}, {"measurement": "IC50", "setting": "TRPM7; ref Chubanov et al., 2012", "result": 1600, "unit": "nM"}]}, {"smiles": "CCCCCCCCc1ccc([C@H]2CC[C@@](N)(COP(=O)(O)O)C2)cc1", "note": "[VPC01091.2-P, ((1S,3S)-1-amino-3-(4-octylphenyl)cyclopentyl)methyl dihydrogen phosphate]", "values": [{"measurement": "Effect on whole-cell TRPM7 current (IM7)", "setting": "mouse TRPM7; 10 µM", "result": "negligible effect; also recorded: no effect"}, {"measurement": "LPS-stimulated IL-1β gene expression", "setting": "RAW 264.7 macrophages; pretreatment, concentration not given", "result": "no significant inhibition"}]}, {"smiles": "CCCCCCCOc1ccc(CC[C@](C)(N)CO)cc1", "note": "[AAL-149, (2S)-2-amino-4-(4-heptoxyphenyl)-2-methylbutan-1-ol]", "values": [{"measurement": "Activity at S1P receptors", "setting": "S1P receptors; ref Brinkmann et al., 2002, Zhu et al., 2007", "result": "not active"}, {"measurement": "IC50", "setting": "mouse TRPM7", "result": 1080, "unit": "nM"}, {"measurement": "LPS-stimulated IL-1β gene expression", "setting": "RAW 264.7 macrophages; 10 µM pretreatment", "result": "completely abrogated"}, {"measurement": "LPS-induced IL-1β expression in TRPM7 KO BMDMs", "setting": "BMDMs", "result": "able to suppress"}, {"measurement": "Lymphopenia when administered to mice", "setting": "lymphocytes", "result": "do not evoke lymphopenia"}, {"measurement": "Cytotoxicity (LDH release)", "setting": "HeLa cells; dosages up to 10 µM", "result": "did not result in any significant cytotoxicity"}, {"measurement": "Mean cytotoxicity (LDH release)", "setting": "HeLa cells; each dose up to 25 µM", "result": "< 5", "unit": "%"}]}, {"smiles": "C=C1CC/C=C(\\C)CC[C@@H]2C([C@H](C/C=C(\\C)COC(C)=O)OC(C)=O)=CO[C@H](OC(C)=O)[C@@H]12", "note": "[Waixenicin A]", "values": [{"measurement": "Time to suppress ITRPM7", "setting": "TRPM7; 10 μM, ref Zierler et al., 2011", "result": "up to 200 s"}, {"measurement": "IC50", "setting": "TRPM7; Mg^2+-free conditions, ref Zierler et al., 2011", "result": 7000, "unit": "nM"}, {"measurement": "IC50", "setting": "TRPM7; recording conditions that limit the development of TRPM7 currents, ref Zierler et al., 2011", "result": 16, "unit": "nM"}]}, {"smiles": "CCCCCCCCCCCCC/C=C/[C@@H](O)[C@@H](N)COP(=O)(O)O", "note": "[S1P, sphingosine-1-phosphate]", "values": [{"measurement": "Effect of phosphorylated forms on IM7", "setting": "TRPM7; ref Qin et al., 2013", "result": "do not inhibit"}]}, {"smiles": "CCCCCCCCc1ccc([C@H]2CC[C@](N)(CO)C2)cc1", "note": "[VPC01091.1, ((1R,3S)-1-amino-3-(4-octylphenyl)cyclopentyl)methanol]", "values": [{"measurement": "Effect on whole-cell TRPM7 current (IM7)", "setting": "mouse TRPM7; 10 µM", "result": "inhibited"}]}, {"smiles": "CCCCCCCCCCCCC/C=C/[C@H](O)[C@@H](N)CO", "note": "[L-threo-sphingosine, L-threo-(2S,3S)-sphingosine, reference compound]", "values": [{"measurement": "IC50", "setting": "mouse TRPM7; peak current at +100 mV, HEK 293T overexpressing mouse TRPM7, Hill slope -1.0, read-out: IC50 for inhibition of TRPM7 current (IM7)", "result": 3380, "unit": "nM"}]}, {"smiles": "CCCCCCCCc1ccc(CCC(N)(CO)CO)cc1", "note": "[FTY720, fingolimod]", "values": [{"measurement": "Effect on S1PRs", "setting": "S1P receptors", "result": "no effect"}, {"measurement": "Effect on whole-cell TRPM7 current (IM7)", "setting": "mouse TRPM7; 5 µM", "result": "inhibited; also recorded: able to inhibit"}, {"measurement": "LPS-induced IL-1β expression in TRPM7 KO BMDMs", "setting": "BMDMs", "result": "able to suppress"}, {"measurement": "IC50", "setting": "TRPM7; [2]", "result": 720, "unit": "nM"}]}]}
